# According to patent US10800752B2, “Substituted naphtho[2,3-b]furans as water-soluble prodrugs for preventing and/or treating cancer” (BOSTON BIOMEDICAL, INC., priority 2015, dated 2020):
# Where a name gives a salt, the structure may show the parent alone.
# Experiments:
# [1] = Solubility test; details: for solubility at 24 hours: pH 2, aqueous buffer, thermodynamic from solid; for solubility (in words): pH 2.0 buffer solution
# Description: A water-soluble prodrug was added into 50 mmol/L glycine buffer solution (pH 2.0). After shaking at room temperature for 24 hours, the mixture was filtered through a membrane filter, and then the filtrate was measured with HPLC.
# The measurement condition of HPLC is as described below. HPLC condition column: Acquity UPLC BEH C18, 1.7 um, 50×2.1 mm
# Mobile phase: A: 0.1% trifluoroacetic acid-containing water
# [2] = Evaluation of a conversion rate to 2-acetylnaphtho[2,3-b]furan-4,9-dione in pH 7.4 phosphate buffer solution; assay type: physicochemical
# Description: For test compounds, the decrease rate of the test compounds and the conversion rate thereof to 2-acetylnaphtho[2,3-b]furan-4,9-dione in human plasma, CD1 mouse plasma, and pH 7.4 phosphate buffer solution were measured.
# Test compounds were incubated at the concentration of 1 umol/L in human plasma (cat. no. 12250210, COSMO BIO), CD1 mouse plasma (cat. no. AP3054, KAC), and phosphate buffer solution at 37° C., and removed at predetermined times (0, 5, 10, 30, 60, and 120 minutes). After protein-removing treatment was performed, they are analyzed with LC-MS. It should be noted that the protein-removing treatment used acetonitrile containing: 10% volume of 1 mol/L hydrochloric acid; 1% volume of 46% citric acid; and phenytoin as an internal standard.
# The measurement condition of LC-MS is as described below. LC-MS condition column: Kinetex 2.6 u PFP 100 A 50×2.1 mm Column temperature: 40° C.
# Mobile phase: A: 0.1% formic acid-containing water
# • B: 0.1% formic acid-containing acetonitrile A/B(min): 95/5(0)→5/95(3)→5/95(4)→95/5(4.1)→95/5(6) Flow rate: 0.4 mL/min Detection: ESI (positive mode) Injection volume: 10 uL
# Measurement values are calculated from the peak area ratio in LC-MS between an internal standard material, phenytoin and an active form, 2-acetylnaphtho[2,3-b]furan-4,9-dione, and are expressed in %.
# In the same way as Example 6, the incubation time was set as 120 minutes later, and the conversion rate of each of various test compounds to 2-acetylnaphtho[2,3-b]furan-4,9-dione in human plasma, CD1 mouse plasma, and pH 7.4 phosphate buffer solution was measured. A series of the present compounds were confirmed to be converted to 2-acetylnaphtho[2,3-b]furan-4,9-dione in pH 7.4 phosphate buffer solution in addition to human plasma and CD1 mouse plasma. Therefore, a series of the test compounds of the present invention were confirmed to be converted to the activated form via a route other than an enzymatic conversion.
# [3] = Phosphate buffer solution (pH 7.4), 1 umol/L, 37° C., incubation time 120 min
# [4] = Phosphate buffer solution (pH 7.4), 1 umol/L, 37° C., incubation time 120 min, dimethanesulfonate salt monohydrate
# [5] = Phosphate buffer solution (pH 7.4), 1 umol/L, 37° C., incubation time 120 min, monohydrate
# [6] = Phosphate buffer solution (pH 7.4), 1 umol/L, 37° C., incubation time 120 min, monosulfate salt monohydrate
# [7] = Phosphate buffer solution (pH 7.4), 1 umol/L, 37° C., incubation time 120 min, trifluoroacetate salt monohydrate
compound,measurement,setting,value
"CC(=O)c1cc2c(OC(=O)C(C)(C)C)c3ccccc3c(OC(=O)C(C)(C)C)c2o1 [2-acetylnaphtho[2,3-b]furan-4,9-diyl bis(2,2-dimethylpropanoate), reference compound]",solubility at 24 hours,[1]; glycine buffer solution,< 0.0001 mg/mL
same,solubility (in words),[1],very low solubility
"CCCCCCCC(=O)Oc1c2ccccc2c(OC(=O)CCCCCCC)c2oc(C(C)=O)cc12 [2-acetylnaphtho[2,3-b]furan-4,9-diyl dioctanoate, reference compound]",solubility at 24 hours,[1]; glycine buffer solution,< 0.0001 mg/mL
same,solubility (in words),[1],very low solubility
"CC(=O)c1cc2c(OC(=O)NCCCN)c3ccccc3c(OC(=O)NCCCN)c2o1 [Example 1, 2-Acetylnaphtho[2,3-b]furan-4,9-diyl bis((3-aminopropyl)carbamate)dihydrochloride]","% Measurement value (conversion rate to 2-acetylnaphtho[2,3-b]furan-4,9-dione)",[2]; [3],79%
"CC(=O)c1cc2c(OC(=O)NCCN)c3ccccc3c(OC(=O)NCCN)c2o1 [Example 2, 2-Acetylnaphtho[2,3-b]furan-4,9-diyl bis((2-aminoethyl)carbamate)dihydrochloride]","% Measurement value (conversion rate to 2-acetylnaphtho[2,3-b]furan-4,9-dione)",[2]; [3],59%
"CN[C@@H](CCNC(=O)Oc1c2ccccc2c(OC(=O)NCC[C@@H](NC)C(=O)O)c2cc(C(C)=O)oc12)C(=O)O [Example 3, (S)-4-((((2-Acetyl-4-((((R)-3-carboxy-3-(methylamino)propyl)carbamoyl)oxy)naphtho[2,3-b]furan-9-yl)oxy)carbonyl)amino)-2-(methylamino)butanoic acid dihydrochloride]","% Measurement value (conversion rate to 2-acetylnaphtho[2,3-b]furan-4,9-dione)",[2]; [3],40%
"CC(=O)c1cc2c(OC(=O)NCCCN)c3ccccc3c(O)c2o1.Cl [Example 15, 2-Acetyl-9-hydroxynaphtho[2,3-b]furan-4-yl (3-aminopropyl)carbamate hydrochloride]","% Measurement value (conversion rate to 2-acetylnaphtho[2,3-b]furan-4,9-dione)",[2]; [3],100%
"CC(=O)c1cc2c(OC(=O)NCCNCCC(=O)O)c3ccccc3c(O)c2o1 [Example 17, 3-((2-((((2-Acetyl-9-hydroxynaphtho[2,3-b]furan-4-yl)oxy)carbonyl)amino)ethyl)amino)prop ionic acid hydrochloride]","% Measurement value (conversion rate to 2-acetylnaphtho[2,3-b]furan-4,9-dione)",[2]; [3],80%
"CC(=O)c1cc2c(O)c3ccccc3c(OC(=O)NCCCN)c2o1.Cl [Example 20, 2-Acetyl-4-hydroxynaphtho[2,3-b]furan-9-yl (3-aminopropyl)carbamate hydrochloride]","% Measurement value (conversion rate to 2-acetylnaphtho[2,3-b]furan-4,9-dione)",[2]; [3],57%
CC(=O)c1cc2c(OC(=O)NCCNCC(F)F)c3ccccc3c(OC(=O)NCCNCC(F)F)c2o1.Cl.Cl [Example 44],"% Measurement value (conversion rate to 2-acetylnaphtho[2,3-b]furan-4,9-dione)",[2]; pH 7.4,48%
"CC(=O)c1cc2c(OC(=O)NCCNCC(=O)O)c3ccccc3c(OC(=O)NCCNCC(=O)O)c2o1 [Example 93, 2,2′-((((((2-acetylnaphtho[2,3-b]furan-4,9-diyl)bis(oxy))bis(carbonyl))bis(azanediyl))bis(ethane-2,1-diyl))bis(azanediyl))diacetic acid monohydrochloride dihydrate]","% Measurement value (conversion rate to 2-acetylnaphtho[2,3-b]furan-4,9-dione)","[2]; Phosphate buffer solution (pH 7.4), 1 umol/L, 37° C., incubation time 120 min, monohydrochloride dihydrate",72%
"CC(=O)c1cc2c(OC(=O)NCCNCC(=O)O)c3ccccc3c(OC(=O)NCCNCC(=O)O)c2o1 [Example 94, 2,2′-((((((2-acetylnaphtho[2,3-b]furan-4,9-diyl)bis(oxy))bis(carbonyl))bis-(azanediyl))bis(ethane-2,1-diyl))bis(azanediyl))diacetic acid dimethanesulfonate salt monohydrate]","% Measurement value (conversion rate to 2-acetylnaphtho[2,3-b]furan-4,9-dione)",[2]; [4],53%
"CC(=O)c1cc2c(OC(=O)NCCNCC(=O)O)c3ccccc3c(OC(=O)NCCNCC(=O)O)c2o1 [Example 95, 2,2′-((((((2-acetylnaphtho[2,3-b]furan-4,9-diyl)bis(oxy))bis(carbonyl))bis(azanediyl))bis(ethane-2,1-diyl))bis(azanediyl))diacetic acid ditoluenesulfonate salt monohydrate]","% Measurement value (conversion rate to 2-acetylnaphtho[2,3-b]furan-4,9-dione)",[2]; [5],54%
"CC(=O)c1cc2c(OC(=O)NCCNCC(=O)O)c3ccccc3c(OC(=O)NCCNCC(=O)O)c2o1 [Example 97, 2,2′-((((((2-acetylnaphtho[2,3-b]furan-4,9-diyl)bis(oxy))bis(carbonyl))bis-(azanediyl))bis(ethane-2,1-diyl))bis(azanediyl))diacetic acid monosulfate salt monohydrate]","% Measurement value (conversion rate to 2-acetylnaphtho[2,3-b]furan-4,9-dione)",[2]; [6],61%
"CC(=O)c1cc2c(OC(=O)NCCNCC(=O)O)c3ccccc3c(OC(=O)NCCNCC(=O)O)c2o1 [Example 98, 2,2′-((((((2-acetylnaphtho[2,3-b]furan-4,9-diyl)bis(oxy))bis(carbonyl))bis(azanediyl))bis(ethane-2,1-diyl))bis(azanediyl))diacetic acid 1/3 trifluoroacetate salt monohydrate]",solubility at 24 hours,[1],> 5 mg/mL
same,"% Measurement value (conversion rate to 2-acetylnaphtho[2,3-b]furan-4,9-dione)",[2]; [7],66%
"CC(=O)c1cc2c(OC(=O)NCCNCCC(=O)O)c3ccccc3c(OC(=O)NCCNCCC(=O)O)c2o1 [Example 99, 3,3′-((((((2-acetylnaphtho[2,3-b]furan-4,9-diyl)bis(oxy))bis(carbonyl))bis(azanediyl))bis(ethane-2,1-diyl))bis(azanediyl))dipropionic acid dimethanesulfonate salt monohydrate]","% Measurement value (conversion rate to 2-acetylnaphtho[2,3-b]furan-4,9-dione)",[2]; [4],60%
"CC(=O)c1cc2c(OC(=O)NCCNCCC(=O)O)c3ccccc3c(OC(=O)NCCNCCC(=O)O)c2o1 [Example 100, 3,3′-((((((2-acetylnaphtho[2,3-b]furan-4,9-diyl)bis(oxy))bis(carbonyl))bis(azanediyl))bis(ethane-2,1-diyl))bis(azanediyl))dipropionic acid ditoluenesulfonate salt monohydrate]","% Measurement value (conversion rate to 2-acetylnaphtho[2,3-b]furan-4,9-dione)",[2]; [5],76%
"CC(=O)c1cc2c(OC(=O)NCCNCCC(=O)O)c3ccccc3c(OC(=O)NCCNCCC(=O)O)c2o1 [Example 101, 3,3′-((((((2-acetylnaphtho[2,3-b]furan-4,9-diyl)bis(oxy))bis(carbonyl))bis(azanediyl))bis(ethane-2,1-diyl))bis(azanediyl))dipropionic acid dibenzenesulfonate salt]","% Measurement value (conversion rate to 2-acetylnaphtho[2,3-b]furan-4,9-dione)","[2]; Phosphate buffer solution (pH 7.4), 1 umol/L, 37° C., incubation time 120 min, dibenzenesulfonate salt",56%
"CC(=O)c1cc2c(OC(=O)NCCNCCC(=O)O)c3ccccc3c(OC(=O)NCCNCCC(=O)O)c2o1 [Example 102, 3,3′-((((((2-acetylnaphtho[2,3-b]furan-4,9-diyl)bis(oxy))bis(carbonyl))bis-(azanediyl))bis(ethane-2,1-diyl))bis(azanediyl))dipropionic acid monosulfate salt monohydrate]","% Measurement value (conversion rate to 2-acetylnaphtho[2,3-b]furan-4,9-dione)",[2]; [6],59%
"CC(=O)c1cc2c(OC(=O)NCCNCCC(=O)O)c3ccccc3c(OC(=O)NCCNCCC(=O)O)c2o1 [Example 103, 3,3′-((((((2-acetylnaphtho[2,3-b]furan-4,9-diyl)bis(oxy))bis(carbonyl))bis(azanediyl))bis(ethane-2,1-diyl))bis(azanediyl))dipropionic acid 1/3 trifluoroacetate salt monohydrate]","% Measurement value (conversion rate to 2-acetylnaphtho[2,3-b]furan-4,9-dione)",[2]; [7],53%
"COC(=O)[C@@H](N)CCNC(=O)Oc1c2ccccc2c(OC(=O)NCC[C@H](N)C(=O)OC)c2oc(C(C)=O)cc12 [Example 105, Dimethyl 4,4′-((((2-acetylnaphtho[2,3-b]furan-4,9-diyl)bis(oxy))bis(carbonyl))bis(azanediyl))(2S,2′S)-bis(2-aminobutanoate)ditoluenesulfonate salt monohydrate]",solubility at 24 hours,[1],> 5 mg/mL
same,"% Measurement value (conversion rate to 2-acetylnaphtho[2,3-b]furan-4,9-dione)",[2]; [5],65%
"COC(=O)[C@@H](N)CCNC(=O)Oc1c2ccccc2c(OC(=O)NCC[C@H](N)C(=O)OC)c2oc(C(C)=O)cc12 [Example 106, Dimethyl 4,4′-((((2-acetylnaphtho[2,3-b]furan-4,9-diyl)bis(oxy))bis(carbonyl))bis(azanediyl))(2S,2′S)-bis(2-aminobutanoate)dibenzenesulfonate salt]",Solubility in pH 2.0 buffer solution,"[1]; 50 mmol/L glycine buffer solution (pH 2.0), room temperature, 24 hours shaking",>5.0 mg/mL
same,"% Measurement value (conversion rate to 2-acetylnaphtho[2,3-b]furan-4,9-dione)",[2]; [3],55%
"COC(=O)[C@@H](N)CCNC(=O)Oc1c2ccccc2c(OC(=O)NCC[C@H](N)C(=O)OC)c2oc(C(C)=O)cc12 [Example 107, Dimethyl 4,4′-((((2-acetylnaphtho[2,3-b]furan-4,9-diyl)bis(oxy))bis(carbonyl))bis(azanediyl))(2S,2′S)-bis(2-aminobutanoate) monosulfate salt monohydrate]","% Measurement value (conversion rate to 2-acetylnaphtho[2,3-b]furan-4,9-dione)",[2]; [6],50%
